Data from article PMC12176268, “Structural Features and Photophysical and Antiproliferative Properties of Me2N‑pbt-Cycloplatinated Complexes with Picolinate Ligands” (Inorganic Chemistry, 2025).

Tests used:
[1] = Catalytic oxidation and photooxidation of NADH monitored by 1H NMR; format: biochemical
From the text: NADH is a key coenzyme involved in many biocatalyzed redox reactions in living cells, and the adequate redox balance of the NADH/NAD^+ redox couple is an important indicator of the metabolic state of the cell. Indeed, the overall in-cell NADH level is higher in cancerous cells than in normal cells to ensure high cell proliferation. Therefore, any selective catalysis of intracellular NADH oxidation to NAD^+ by a metal complex in cancer cells can disrupt its intracellular redox balance, causing cell death. , The catalytic oxidation and photooxidation of NADH (2.8 mM) by 3 (0.8 mM) in DMSO/D2O (5/95 v/v) was monitored by ^1H NMR spectroscopy at 298 K (Figure S34). In the dark (NADH + 3 + dark), a new set of characteristic peaks at 9.33, 9.17, 8.81, 8.48, 8.43, 8.20, 8.16, 6.04, and 5.97 ppm, ascribed to the protons of NAD^+ (∼8%), were detected after 72 h. Light irradiation greatly accelerates the oxidation process. In fact, ∼33% of NADH was oxidized to NAD^+ after irradiation (460 nm, 2 h), with an oxidation turnover number (TON) of 1.4 after 2 h (TOF 0.7 h^–1). […] It should be noted that platinum(II) complexes showing biocatalytic activity on the NADH/NAD^+ redox couple are very scarce.
The time dependence of the catalytic oxidation and photooxidation of complex 3 (0.8 mM) with NADH (2.8 mM) in DMSO/D2O (5/95 v/v) was studied for 72 h in the dark or 2h with light irradiation (λexc = 460 nm) by ^1H NMR at 298 K. The conversion of NADH to NAD^+ was approximately calculated from the NMR data.

[2] = molecular target: T1, bovine serum albumin (BSA) (Bos taurus, UniProt P02769); experiment: Quenching of intrinsic BSA fluorescence (Stern–Volmer, binding constant); conditions: 5 μM BSA, 20 mM PB pH 7.4, 1% DMSO, 1 h room temperature
Description: In order to further characterize the interactions between complex 3 and BSA, we monitored the evolution of the intrinsic emission band of BSA upon excitation at 290 nm, attributed to the Trp213 residue located in the hydrophobic domain IIA, in the presence of an increasing concentration of complex 3. Briefly, the emission spectra of solutions containing 5 μM BSA dissolved in 20 mM PB buffer (pH 7.4) containing 1% DMSO incubated for 1 h at room temperature with concentrations of 3 ranging from 1 to 100 μM (Figure S33A) were recorded. […] The kinetics of the intermolecular quenching processes follow the Stern–Volmer eq : 2 F0/F=1+Ksv[3] where F 0 is the fluorescence intensity of pure BSA, F is the fluorescence intensity after the addition of 3, and K SV is the Stern–Volmer dynamic quenching efficiency (Figure S33B). K SV (eq ) can be expressed as the product of the quenching rate k q and the average lifetime of the fluorophore τ0 in the excited state, which is typically 10^–8 s. 3 KSV=kqτ0
The linear Stern–Volmer plot can be indicative of either a dynamic or static quenching mechanism.
It is further possible to determine the number of binding sites (n) and the binding constant (Kb) by plotting log((F0-F)/F) vs log([3]) (Figure S33C) according to eq . 4 log(F0−F/F)=logKb+nlog[3] […]

[3] = molecular target: T1, bovine serum albumin (BSA); experiment: Emission and UV–vis titration of complex 3 with BSA; format: binding; conditions: 10 μM complex, BSA 0–50 μM, H2O/DMSO 95/5, λexc 450 nm
Description: The possible interaction of these Pt(II) complexes with the model protein bovine serum albumin (BSA) was studied by fluorescence and UV–vis spectroscopy. […] The effect of increasing the amount of BSA (from 0 to 50 μM) on solutions of complex 3 in mixtures of H2O/DMSO (95/5 v/v) while keeping the concentration of 3 (10 μM) constant was evaluated. Upon addition of BSA (3/BSA 1:0.25), a slight blue shift of the emission band from 510 to 495 nm is observed, and a clear switch-on of the monomer phosphorescence (^3ILCT), as a structured band slightly blue-shifted (ca. 574 nm) in relation to the complex in DMSO is observed. The intensity of this latter band reaches a maximum when the 3/BSA ratio was ca 1:1 (Figure ). […] In particular, the decrease in fluorescence emission and the switch-on of the monomer phosphorescence can be attributed to the binding of 3 to the hydrophobic pockets of the protein, which increases the rigidity of its environment and decreases the nonradiative constant.
For the BSA binding experiment, solutions of complex 3 with BSA in mixtures of DMSO/H2O (5/95 v/v) were prepared, keeping the concentration of 3 (10 μM) constant and increasing the amount of BSA (from 0 to 50 μM). […] The fluorescence intensities were then measured at λexc = 450 nm, and the emission fluorescence spectra were recorded in the wavelength range λ = 400–800 nm.

T1 sequence (P02769 25-607): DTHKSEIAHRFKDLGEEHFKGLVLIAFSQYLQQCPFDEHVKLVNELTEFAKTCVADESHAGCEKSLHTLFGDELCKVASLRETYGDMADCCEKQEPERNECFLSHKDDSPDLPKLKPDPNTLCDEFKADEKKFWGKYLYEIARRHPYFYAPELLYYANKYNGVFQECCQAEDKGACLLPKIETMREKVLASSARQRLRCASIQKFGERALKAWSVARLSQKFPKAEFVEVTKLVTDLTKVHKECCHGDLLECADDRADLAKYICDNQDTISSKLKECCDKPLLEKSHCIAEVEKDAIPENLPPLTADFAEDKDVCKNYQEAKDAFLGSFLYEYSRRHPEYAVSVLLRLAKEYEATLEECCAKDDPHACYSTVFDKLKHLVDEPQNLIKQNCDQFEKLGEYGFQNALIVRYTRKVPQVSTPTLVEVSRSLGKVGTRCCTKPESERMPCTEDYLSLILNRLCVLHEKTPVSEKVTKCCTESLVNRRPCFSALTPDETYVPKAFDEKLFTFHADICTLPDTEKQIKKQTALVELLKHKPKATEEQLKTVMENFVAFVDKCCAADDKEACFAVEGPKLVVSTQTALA

## [Pt(Me2N-pbt)(3-OH-pic-κN,O)] [Complex 3]
[1]; 460 nm irradiation, 2 h
  TOF: 0.7 h^–1
[1]; 460 nm irradiation, after 2 h
  oxidation turnover number (TON): 1.4
[1]; NADH 2.8 mM, complex 0.8 mM, DMSO/D2O 5/95, 298 K, 460 nm, 2 h
  NADH oxidized to NAD+ after irradiation: ~33%
[1]; NADH 2.8 mM, complex 0.8 mM, DMSO/D2O 5/95, 298 K, dark, 72 h
  NAD+ formed from NADH in the dark: ~8%
[2]
  number of binding sites (n) on BSA: 0.9 ± 0.07
[2]; λexc 290 nm, τ0 10^–8 s
  quenching rate kq of BSA fluorescence: 2.21 ± 0.12 × 10^12 M^–1.s^–1
[3]
  interaction with BSA (changes of emission and UV–vis spectra): interacts strongly with BSA
